Series [1] deals with KRAS G12V mutant NCI-H727 cells. Put plainly: Proliferation inhibition of NCI-H727 cells, 3D CellTiter-Glo assay (Method B). Conditions: Homo sapiens, NCI-H727, 120 h, Method B; 3D culture with 0.65% methylcellulose, 5 days, CTG; read-out: NCI-H727 IC50/nM. In kind it is cell-based, human. Put shortly: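 Cells grown in 3D medium (RPMI-1640, 10% FBS, 0.65% methylcellulose) overnight, then treated 5 days at 37 °C, 5% CO2 with 9 threefold dilutions from 10 µM top working concentration, duplicate wells. CellTiter-Glo luminescence read; IC50 (nM) fitted by dose-response-inhibition equation.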

For series [2], the system named is KRAS G12D mutant AGS cells. The experiment in a line: Proliferation inhibition of AGS cells, CellTiter-Glo assay. Conditions: Homo sapiens, AGS, 72 h, 3 days, CTG; read-out: AGS IC50/nM. The series is classed as cell-based, human. Put shortly:
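AGS cells at 1500 cells/well in F12K + 10% FBS were exposed for 3 days at 37°C to nine 3-fold dilutions from 10 µM top concentration, in duplicate. Viability read by CellTiter-Glo luminescence; IC50 (nM) from dose-response-inhibition fitting.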
In general terms: Cellular ATP, detected with luciferase, serves as a proxy for viable cell number.

Series [3] can be described thus: in vivo. Conditions: mouse, po, 20 mg/kg.
Procedure: Male CD-1 mice, aged 6-8 weeks, were purchased from Zhejiang Vital River Laboratory Animal Co., Ltd.
For the PO administration group, compounds were formulated in 0.5% Tween 80 and 99.5% (0.5%MC (400cp)) vehicle or 0.5%MC (400cp) vehicle to a final concentration of 1 mg/mL or 2 mg/mL for each compound. The drug formulation was administered to CD-1 mice via gavage at a dose of 10 mL/kg. Blood samples were collected from the submandibular vein or other suitable means at 15 min, 30 min, 1 h, 2 h, 4 h, 6 h, 8 h, and 24 h after administration. The blood samples were centrifuged at low temperature for 5 minutes, and the plasma was collected and stored at -80°C for analysis.
10 µL of plasma sample was taken, 200 µL of methanol containing an internal standard as a precipitant was added to precipitate plasma proteins, the compounds to be tested in the plasma was extracted, centrifuged at low temperature, and 10 µL of the supernatant was injected. The drug concentration in blood plasma was analyzed by LC-MS/MS. The pharmacokinetic parameters were calculated using Winnonlin based on the blood drug concentration data at different time points.
Series [4] deals with human lung cancer cells NCI-H441 with KRAS-G12V mutation. Put plainly: Antitumor effect in NCI-H441 subcutaneous xenograft model. The series is classed as in vivo, NU/NU mice. The settings on record: 20 mpk, PO. As to the method: NCI-H441 cells were purchased from ATCC (catalog number: HTB-174). Male NU/NU mice were purchased from Jiangsu Jicui Yaokang Biotechnology Co., Ltd.
NCI-H441 cells were cultured in RPMI-1640 medium containing 10% FBS. Cells in the logarithmic growth phase were collected and resuspended in PBS to an appropriate concentration for subcutaneous tumor inoculation in mice. Experimental mice were subcutaneously inoculated in the right posterior back at a seeding density of 1×10^6 cells/mouse+Matrigel, with a seeding volume of 0.1 mL. When the average tumor volume reached ~150 mm^3, mice were randomly assigned to groups based on tumor size and body weight for drug administration. Drug administration began immediately after grouping, and the day of administration was considered day 0. The drug was administered to the mice twice daily via gavage at doses of 10 mpk, 20 mpk, 30 mpk, or a solvent control (0.5% Tween 80+99.5% of 0.5% MC (400 cp) or 0.5% MC (400 cp)). During the experiment, mouse body weight and tumor size were measured twice weekly. Tumor size was calculated using the formula: Tumor volume (mm^3)=0.5×(Tumor long diameter × Tumor short diameter^2). Relative tumor inhibition rate (TGI) (%): TGI%=[1-(Average tumor volume at the end of treatment in a given treatment group - Average tumor volume at the start of treatment in the treatment group) / (Average tumor volume at the end of treatment in the solvent control group - Average tumor volume at the start of treatment in the solvent control group)] × 100%.

Series [5] relates to human pancreatic cancer cells HPAC. The settings on record: po, 20 mg/kg, 408 h.
Procedure: The following materials were used in this experiment: NOD/SCID mice, 6-8 weeks old, female, Jiangsu Jicui Yaokang Biotechnology Co., Ltd.; HPAC cells (carrying KRas G12D mutant protein, ATCC); Captisol (Wuhan Fengyao Tonghui Chemical Products Co., Ltd., Cas#182410-00-0); sodium acetate (aladdin) MC (sigma, 9004-67-5).
The experiment was conducted as follows: 6- to 8- week-old female NOD/SCID mice were subcutaneously inoculated with 1×10^7 HPAC cells in their right posterior back, with an inoculation volume of 0.1 mL. When the tumor reached an average volume of 150 mm^3, mice were randomly assigned to groups based on tumor size and body weight for drug administration. The day of drug administration was considered day 0. The test compound was administered by gavage to four mice in each group, while the control group received an equal volume of the solvent via gavage.
During the experiment, tumor volume and body weight were measured twice a week. Tumor volume was calculated using the formula: Tumor volume (mm^3)=0.5×(tumor long diameter×tumor short diameter^2). The mean tumor inhibition rate (TGI%) was calculated as follows: [(average tumor volume in the control group-average initial tumor volume in the control group)-(average tumor volume in the treatment group - average initial tumor volume in the treatment group)] / (average tumor volume in the control group - average initial tumor volume in the control group).

Usually AUC(0-t) stands for exposure summed from dosing to a finite time, without extrapolation to infinity. A high value points to high exposure.

With `CCN1CC/C(=C\F)[C@](C)(COc2nc(N3Cc4c(COC)c(C(=O)N(C)C)nn4CC[C@@H]3C)c3cc(C(F)(F)F)c(-c4c(F)ccc5sc(N)c(C#N)c45)c(F)c3n2)C1` (single isomer, unassigned) [Example 232A], the IC50 in series [1] and in series [2] was less than 1.5 nM throughout. Besides, in series [3], the AUC(0-t) at 8 h came to 1520 ng·h/mL.
Turning to `[2H]C([2H])([2H])N1CC/C(=C\F)[C@](C)(COc2nc(N3Cc4cc(C(=O)N(C)C)nn4CC[C@@H]3C)c3cc(C(F)(F)F)c(-c4c(F)ccc5sc(N)c(C#N)c45)c(F)c3n2)C1` (single isomer, unassigned) [Example 247A], the IC50 in series [1] and in series [2] was less than 1.5 nM throughout. For the same compound, in series [4] (BID×17), the “Tumor volume (mm^3) (day 16)” value is listed as 162 mm^3. Further, the TGI% is given as 97% in series [4] (BID×17, day 16) and 98% in series [5]. Further, in series [5], the “Tumor volume (mm^3) (day 17)” value is 161 mm^3.

The values above are taken from patent EP4775577A1, “RAS INHIBITOR” (Tyligand Bioscience (Shanghai) Limited, priority 2023, dated 2025).
